These results are taken from patent publication US8822440B2, “Inhibiting cyclin D polypeptides” (Mayo Foundation for Medical Education and Research, priority 2006, dated 2014).

“Also recorded” adds a separate entry of the source.

One series relates to CCND2 promoter. The experiment in a line: CCND2 promoter-luciferase transactivation assay in NIH3T3 cells with or without c-maf. The series is classed as cell-based, mouse. The method, then:
Using this assay, Lopac (n=1280), Prestwick (n=1120), and Spectrum (n=2000) libraries of drugs and natural compounds were screened. In a parallel MTS assay, the effect of each compound on 3T3 viability was determined, allowing exclusion of compounds that caused secondary suppression of CCND2 due to non-specific cytotoxicity. […] These included monensin, patulin, β-lapachone, camptothecin, dihydrogambogic acid, gentian violet, thapsigargin, brefeldin A, pristimerin, and kinetin riboside.
Full-length c-maf cDNA was subcloned into an IRES-GFP MIEV retroviral vector and introduced into NIH3T3 cells by infection. Stable clones expressing GFP and c-maf were selected by flow cytometry and immunoblotting, respectively. The promoter of human cyclin D2 (−894 to −4; Brooks et al., J. Biol. Chem., 271, 9090-9 (1996)), containing c-maf responsive element sequence (MARE), was cloned from DNA from HeLa cells and inserted into the pGLbasic firefly luciferase vector (Promega, Madison, Wis.) immediately upstream of the luciferase gene. This construct was co-transfected with pcDNA3 (containing a neomycin resistance gene) into both NIH3T3 wild type cells and NIH3T3 cells stably over-expressing c-maf-IRES-GFP. Cells stably expressing c-maf, GFP, and luciferase were selected.
(§1) NIH3T3 cells stably expressing c-maf and the CCND2 promoter driving luciferase (13,000 cells per well) were plated in 96-well plates by a Biomek FX liquid handler (Beckman, Fullerton, Calif.). After the cells had adhered, they were treated with aliquots of molecules from LOPAC (Sigma, St. Louis, Mo.), Prestwick (Prestwick Chemical Inc, Illkirch, France) or Spectrum (Microsource Discovery Systems, Gaylordsville, Conn.) libraries of off-patent drugs and chemicals at a final concentration of ˜5 μM and <0.1% DMSO. Cells were incubated with compounds at 37° C. for 16 hours.
Luciferase assay. Luciferase activity was assessed according to the manufacturer's instructions (Promega, Madison, Wis.). Briefly, the cell culture medium was removed using an EMBLA plate washer (Molecular Devices, X) and Glo Lysis buffer (Promega) was added by robot. After a 10-minute incubation, an equal volume of Bright-Glo Luciferase substrate (Promega) was added, and luminescence signal was detected with a 96-well Luminoskan luminescence plate reader (Thermo Labsystem, Waltham, Mass.) using a 5 second integration.
Studies of kinetin riboside using 3T3-D2-luc cells. To examine CCND2 suppression induced by kinetin riboside, the reporter cells were exposed to kinetin riboside in combination with other drugs (all purchased from Sigma, St. Loius, Mo.) that influence CCND2 transcription or inhibit nucleoside transport or phosphorylation. NIH3T3 cells expressing the CCND2 promoter driving luciferase were incubated with kinetin riboside or vehicle control +/− forskolin, 4-(3-butoxy-4-methoxybenzyl)imidazolidin-2-one (BMBI), cantharadin, S-(4-Nitrobenzyl)-6-thioinosine (NBTI), or A-134974, as specified at 5 μM concentration for 16 hours at 37° C. […] Forskolin is a cell-permeable diterpenoid that activates adenylate cyclase resulting in increased cAMP concentration. BMBI (Sigma B8279) is an inhibitor of cAMP phosphodiesterase that also causes accumulation of cAMP. Cantharadin (C7632) is an inhibitor of protein phosphatase 2A and, from the library screen, mediates induction of CCND2. NBTI (Sigma N2255) is a potent adenosine uptake inhibitor, and A-134974 (Sigma A2846) is a selective inhibitor of adenosine kinase.
(§2) In an optimized automated assay, NIH3T3 cells over-expressing c-maf and the human cyclin D2 promoter driving luc were plated in 96-well plates by robot and following adhesion were treated for 16 hours with compounds at a final concentration of ˜5 μM and <0.1% DMSO. As a control, cells were treated with buffer alone. […] Thus, each compound from the library was tested in at least two assays—luciferase for CCND2 activity and MTS for viability. The coefficient of variance (CV) of the assay was <10%.

For the next series, the system named is NIH3T3 cells. It counts as cell-based, mouse. The note with it: MTS. As to the method:
as §1
(§3) Viability assay. The effects of screened compounds on cell viability was assessed by 3-(4,5-dimethyl[…])-5-(3-carboxymethoxyphenyl)-2-(4-sulfophenyl)-2-H-tetrazolium (MTS) assay according to the manufacture's instructions (Progmega, Madison, Wis.). MTS reagent (20 μL/well in 96 well plates) was added to cells, and these were then incubated at 37° C. for 4 hours. Absorbance at 490 nm was determined using a 96-well plate reader.
as §2

Series [1] has as its system cyclin D1, cyclin D2, cyclin D3. The experiment in a line: Immunoblot of cyclin D proteins in HMCL. It counts as cell-based, human. The following applies: A-134974 2 μM, kinetin riboside 10 μM. The method, then: (§4) Immunoblotting. Cytosolic extracts were prepared from HMCL or purified patient CD138^+ myeloma cells following exposure to kinetin riboside. Cells were washed with cold PBS, resuspended in cold RIPA buffer (5×10^6 cells/100 μL) containing fresh protease and phosphatase inhibitors (Santa Cruz Biotechnology, Santa Cruz, Calif.) and incubated on ice for 30 minutes with gentle mixing. The supernatant was repossessed following high speed centrifugation, and protein concentrations were determined by the Bradford assay. Immunoblot assays were performed as described elsewhere (Krajewski et al., Anal. Biochem., 236:221-228 (1996)). Briefly, equal amounts of protein were separated by SDS-PAGE and transferred to a PVDF nitrocellulose membrane using a semi-dry apparatus. Membranes were blocked using 5% skim milk in Tris buffered saline and probed with monoclonal mouse anti-cyclin D1 (DCS-6, Biosource, Camarillo, Calif.), polyclonal rabbit anti-cyclin D2 (#2924, Cell Signalling Technology), monoclonal mouse anti-cyclin D3 (DCS-22, BioSource), polyclonal rabbit anti-c-Maf (M-153, Santa Cruz), polyclonal rabbit anti-Cleaved Caspase 9 (Asp315) (Cell Signaling Technology), monoclonal mouse anti-β-actin (Cell Signaling Technology) and/or monoclonal anti-a-tubulin (B-7)(Santa Cruz Biotechnology, Santa Cruz, Calif.). Membrane proteins were visualized using HRP-conjugated species-specific secondary antibodies (Cell Signaling Technology) and enhanced chemiluminescence (Pierce, Rockford, Ill.).
For orientation: In western blotting, separated proteins are transferred to a membrane and probed.

In a further series the test system is caspase 9. The experiment in a line: Immunoblot of caspase 9 cleavage in HMCL. The following applies: A-134974 2 μM, kinetin riboside 10 μM. The series is classed as cell-based, human. The method, then:
as §4, with “Membrane proteins were visualized using HRP-conjugated species-specific secondary antibodies (Cell Signaling Technology) and enhanced chemiluminescence (Pierce, Rockford, Ill.).” left out

For the next series, the system named is RSV promoter. The experiment in a line: Luciferase driven by RSV promoter in NIH3T3 cells (specificity control). It counts as cell-based. The source says:
Exclusion of non-specific or toxic assay ‘hits.’ Drugs that decreased luciferase activity without affecting viability may cause reduced transactivation of the cyclin D2 promoter, or may act non-specifically on the activity of the luciferase enzyme. To distinguish between these two possibilities, hits were re-tested against NIH3T3 cells that over-expressed luciferase driven by an RSV promoter. […] Therefore, these drugs were excluded from further analysis.

Series [2] deals with human myeloma cell lines (HMCL). The experiment in a line: HMCL viability / cytotoxicity (MTT, MTS). It counts as cell-based. As to the method:
Subsequent validation studies using selected compounds in human myeloma cell lines (HMCL) confirmed successful suppression of both cyclin D2 and D1 polypeptides. Each of these compounds was then shown to be cytotoxic to a genetically diverse and standardized panel of 14 HMCL in MTT assays: monensin (10-760 nM), camptothecin (5-700 nM), dihydrogambogic acid (250-800 nM), pristimerin (150-500 nM), and kinetin riboside (2.5-20 μM). Cell cycle analysis confirmed induction of G0/G1 phase arrest for most compounds, consistent with cyclin D inhibition.
as §3

Series [3] relates to CD138− hematopoietic cells. The experiment in a line: Unsorted myeloma patient bone marrow, flow cytometry: CD138- non-malignant cells. The following applies: patient bone marrow, 48 hours. The series is classed as cell-based. The method, then: Flow cytometry. HMCL were treated as indicated and then washed in cold phosphate-buffered saline (PBS) and resuspended in buffer containing AnnexinV-FITC and propidium iodide (BD Biosciences, San Jose, Calif.) for 15 minutes at room temperature. Cells (10^5) were subsequently diluted and analyzed immediately by flow cytometry (FACScan, BD Biosciences, San Jose, Calif.) using CellQuest software. Patient bone marrow specimens were prepared and analyzed in a similar fashion using AnnexinV-FITC and anti-CD138-PE (BD Biosciences, San Jose, Calif.).
As mouse embryos that lack any D-cyclins eventually die from hematopoietic failure (Kozar et al., Cell, 118, 477-91 (2004)), the bone marrow might be predicted to be one of the most sensitive non-malignant tissue to be affected by drugs targeting cyclin D expression. Unsorted bone marrow samples from myeloma patients were treated with kinetin riboside to assess the relative cytotoxicity of this drug on malignant versus non-malignant marrow cells. Bone marrow samples were first processed to remove non-nucleated red cells and were then treated for 48 hours with kinetin riboside (5 μM).
On the technique in general: In flow cytometry, cells or beads pass a laser one at a time.

Series [4] is described as follows: Pristimerin toxicity studies in mice. The series is classed as in vivo. The following applies: i.p. daily. The method, then:
While pristimerin is cytotoxic to HMCL and patient myeloma cells at 0.1-0.15 mg/L, toxicity studies in vivo indicate that the drug is tolerated in mice at 2.5 mg/kg i.p. daily.

With `Nc1ncnc2c1c(I)cn2[C@@H]1C[C@H](N)[C@@H](O)[C@H]1O` [A-134974], the “effect on CCND2-luc expression, agent alone” value in the series with CCND2 promoter (NIH3T3 reporter cells, 5 μM, 16 hours) is “minimal enhancement”. In the series with CCND2 promoter (NIH3T3 reporter cells, with kinetin riboside), the “effect on kinetin riboside-induced suppression of CCND2” value was “completely inhibits”. For the same compound, the “effect on NIH3T3 viability” value in the series with NIH3T3 cells is recorded as “no effect on 3T3 cell viability”. The “effect on cyclin D1 and D2 levels in kinetin riboside-treated HMCL” value in series [1] is recorded as “partially rescues”. In addition, the “effect on kinetin riboside-induced caspase 9 cleavage in HMCL” value in the series with caspase 9 was “prevents”.

For `O=C1C=C2C(=CCOC2O)O1` (stereo not shown) [patulin], in the series on CCND2 promoter (~5 μM, 16 hours, hit = 50% or more reduction in luciferase relative to cell viability), the “identified as putative inhibitor of CCND2 transactivation (screen hit)” value is reported as “putative CCND2 inhibitors; also recorded: putative suppressors of CCND2”. Further, in the series with NIH3T3 cells, the “effect on NIH3T3 viability” value is “excess NIH3T3 cytoxicity”. In addition, the “effect on luciferase driven by RSV promoter” value in the series on RSV promoter is given as “non-specifically reduce luciferase activity”.

On to `COC(=O)[C@]1(C)CC[C@]2(C)CC[C@]3(C)C4=CC=C5C(=CC(=O)C(O)=C5C)[C@]4(C)CC[C@@]3(C)[C@@H]2C1` [pristimerin], for which the “effect on NIH3T3 viability” value in the series with NIH3T3 cells was “relatively minor effects”. Further, the cytotoxic concentration in series [2] (HMCL and patient myeloma cells) is 0.1 to 0.15 mg/L. In series [2] (MTT assays, 14 HMCL), the “cytotoxic concentration across panel of 14 HMCL” value was in the range of 150 to 500 nM. In series [3], the “toxicity in CD138− bone marrow progenitor compartment” value is reported as “only modest toxicity”. In addition, the “dose tolerated in mice” value in series [4] was found to be 2.5 mg/kg.
